The values that follow come from ChEMBL document CHEMBL1201862, “PubChem BioAssay data set” (2004).

Assay in all cases: inhibition of tumour cell growth, NCI panel, 48 h
Assay [1] has as its system NCI-H23.
Assay [2] concerns BT-549.
The subject of assay [3] is Hs-578T.
Assay [4] relates to M14.
Assay [5] deals with U-251.
In assay [6] the test system is NCI-H460.
Assay [7] deals with CCRF-CEM.
In assay [8] the test system is NCI-H226.
For assay [9], the system named is HCT-15.
For assay [10], the system named is HCT-116.
Assay [11] relates to DU-145.
Assay [12] relates to A498.
Assay [13] deals with SR.
The test system of assay [14] is 786-0.

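Step 1: Grow cells in 96-well plates. Step 2: Expose to compound for 48 hours at 5 concentrations. Step 3: Interpolate endpoints linearly; if unreached, use highest concentration. GI50 is the concentration that inhibits growth by half.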 Calls of active or inactive are those of the source. No stated cut-off is given here; in the data, active = GI50 up to about 1.1 µM and inactive = higher. Some results are limits rather than exact numbers.

With `N#C/N=[N+](\[O-])c1ccc(C(=O)O)cc1`, the GI50 is 17.7 µM (inactive) in [1]; 16.4 µM (inactive) in assay [2]; 30.8 µM (inactive) in [3]; 18.2 µM (inactive) in [4]; 19 µM (inactive) in assay [5]; 28.7 µM (inactive) in [6]. For the same compound, the GI50 in assay [7] was 32.7 µM (inactive); in [8] it was 19.2 µM (inactive); in assay [9], 16.2 µM.

Consider `C=CC[N+]12CN3CN(CN(C3)C1)C2`, for which the GI50 in assay [1] is 24.2 µM (inactive); in assay [10], 19 µM (inactive); in [11], 21.1 µM (inactive); in [2], 26.7 µM (inactive); in assay [3], > 100 µM (inactive); in assay [4], 25.8 µM (inactive). The GI50 in assay [5] was 31.9 µM (inactive); in [6], 24.2 µM (inactive); in [7] it was 5.83 µM (inactive); in assay [12] it was 32.8 µM (inactive); in [9] it was 22.6 µM.

Consider `CC(C(=O)NCCNC(=O)CCC(=O)N(C)O)C(=O)NCCNC(=O)CCC(=O)N(C)O`, for which the GI50 in assay [1], in [13], in assay [11], in [3], in [4] and in assay [5] was > 100 µM (inactive) throughout. In addition, the GI50 in assay [6] was > 100 µM (inactive); in assay [7] it was > 100 µM (inactive); in assay [8] it was > 100 µM (inactive); in assay [12] it was > 100 µM (inactive); in assay [9], more than 100 µM.

As for `S=C(Cc1ccc2c(c1)Sc1ccccc1O2)N1CCOCC1`, the GI50 is 46.2 µM (inactive) in [1]; 8.32 µM (inactive) in [10]; 26.7 µM (inactive) in [13]; > 100 µM (inactive) in assay [11]; 21.1 µM (inactive) in assay [3]; 40.6 µM (inactive) in assay [4]. For the same compound, the GI50 is 31.8 µM (inactive) in assay [5]; 23.5 µM (inactive) in [6]; 56.9 µM (inactive) in assay [14]; 28.8 µM (inactive) in [8]; 50.6 µM (inactive) in assay [12]; 41.9 µM in assay [9].

For `O=C1/C(=C/c2ccc(Oc3ccccc3)cc2)N=C(c2ccccc2)N1c1ccc(S(=O)(=O)Nc2nccs2)cc1`, the GI50 in assay [1] is 32.7 µM (inactive); in assay [10] it was 10.7 µM (inactive); in assay [13], 2.65 µM (inactive); in [11] it was 47 µM (inactive); in assay [3], 39.4 µM (inactive); in assay [4] it was 15.3 µM (inactive). Also, the GI50 in assay [5] is 17.1 µM (inactive); in assay [6], 25.5 µM (inactive); in assay [14], 31.4 µM (inactive); in [7], 26.2 µM (inactive); in [8], 33.4 µM (inactive); in [12], 18.1 µM (inactive). In assay [9], this compound showed a GI50 of 8.07 µM.

With `COc1ccc(C(C2C(=O)N(C)C(=O)N(C)C2=O)C(F)(F)C(=O)N(C)C)cc1` (configuration not stated), the GI50 in assay [1], in [10], in assay [11], in [2], in assay [4] and in assay [5] was > 100 µM (inactive) in each case. Besides, the GI50 in [6] is > 100 µM (inactive); in assay [14], > 100 µM (inactive); in assay [7] it was > 100 µM (inactive); in assay [8] it was > 100 µM (inactive); in assay [12] it was > 100 µM (inactive); in assay [9], more than 100 µM.

In the case of `CC(=O)[C@@]1(c2ccccc2)CC2(CCN(C)CC2)O[C@H]1C`, the GI50 in assay [1], in [10], in assay [11], in [2], in assay [4] and in [5] was > 100 µM (inactive) each time. For the same compound, the GI50 was > 100 µM (inactive) in assay [6]; > 100 µM (inactive) in assay [14]; > 100 µM (inactive) in [8]; > 100 µM (inactive) in assay [12]; more than 100 µM in [9].

Consider `NC(=O)c1ccccc1NC(=O)C(=O)C(c1cnc2ccc([N+](=O)[O-])cc2n1)[N+](=O)[O-]` (configuration not stated), for which the GI50 is > 100 µM (inactive) in assay [1]; 87.7 µM (inactive) in [10]; > 100 µM (inactive) in [2]; > 100 µM (inactive) in assay [3]; > 100 µM (inactive) in assay [4]; > 100 µM (inactive) in assay [5]. Also, the GI50 was 64.9 µM (inactive) in [6]; > 100 µM (inactive) in assay [14]; 39.2 µM (inactive) in assay [7]; > 100 µM (inactive) in assay [8]; > 100 µM (inactive) in [12]; 54.6 µM in assay [9].

Regarding `O=C1C(Cl)=C(N2CCSCC2)C(=O)c2c(O)ccc(O)c21`, the GI50 is 0.273 µM (active) in assay [1]; 0.307 µM (active) in assay [10]; 0.292 µM (active) in [13]; 0.802 µM (active) in [11]; 0.501 µM (active) in assay [3]; 0.33 µM (active) in [4]. Further, the GI50 is 0.494 µM (active) in [6], 0.1 µM (active) in [14] and 0.347 µM (active) in [8].

Regarding `COc1ccc(-c2csc3c2[N+]2(C)C=CC=C2C3N2CCCC2)cc1` (configuration not stated), the GI50 in assay [1] was 10.6 µM (inactive); in assay [10], 33 µM (inactive); in assay [13], 5.28 µM (inactive); in assay [2], 8.2 µM (inactive); in assay [3], 15.7 µM (inactive); in assay [4] it was 29.8 µM (inactive). In addition, the GI50 in [5] is 7.01 µM (inactive); in assay [6], 16.1 µM (inactive); in assay [14], 41.6 µM (inactive); in assay [7] it was 28.3 µM (inactive); in assay [8] it was 2.21 µM (inactive); in assay [12], 31.1 µM (inactive). Besides, the GI50 in [9] is 37.9 µM.

Take `CN1CN(c2ccccc2)C2(CCN(CCCC(=O)c3cccs3)CC2)C1=O`: the GI50 was 51.2 µM (inactive) in [1]; 30.1 µM (inactive) in assay [10]; 53.5 µM (inactive) in assay [13]; 36.6 µM (inactive) in assay [11]; 95.5 µM (inactive) in assay [4]; 45.7 µM (inactive) in assay [5]. Besides, the GI50 in assay [14] was 35.6 µM (inactive); in assay [7], 30.3 µM (inactive); in assay [8], 34.5 µM (inactive); in assay [9], 34.7 µM.

With `CCOC(=O)c1csc(NC(=O)CCN2CCCCC2)n1`, the GI50 in assay [1], in [13], in assay [11], in [4], in [5] and in [6] was > 100 µM (inactive) throughout. Further, the GI50 in assay [7] was > 100 µM (inactive); in assay [12], > 100 µM (inactive); in assay [9], more than 100 µM.

Regarding `CCCc1cc(=O)oc2c3c(c4c(c12)OC(C)(C)CC4)O[C@@H](C)[C@H](C)[C@H]3O`, the GI50 in [1] was 12.2 µM (inactive); in [10] it was 8.89 µM (inactive); in [11], 17.8 µM (inactive); in assay [2], 5.06 µM (inactive); in [3] it was 15.8 µM (inactive); in assay [4] it was 11.8 µM (inactive). For the same compound, the GI50 in assay [5] was 11.8 µM (inactive); in assay [6], 8.49 µM (inactive); in assay [14], 5.37 µM (inactive); in [7] it was 3.98 µM (inactive); in [8], 15.2 µM (inactive); in [9], 11.2 µM.

With `COc1cc(C)cc(OC)c1/C=C/C(=O)O`, the GI50 is > 100 µM (inactive) in assay [1]; > 100 µM (inactive) in assay [10]; > 100 µM (inactive) in [13]; > 100 µM (inactive) in [2]; 24.8 µM (inactive) in [3]; > 100 µM (inactive) in assay [4]. Also, the GI50 in [5] was > 100 µM (inactive); in assay [6], > 100 µM (inactive); in [14] it was > 100 µM (inactive); in assay [8], > 100 µM (inactive); in [12], > 100 µM (inactive); in assay [9], more than 100 µM.

As for `Cc1ccc(S(=O)(=O)N/N=C2\C=C[C@]3(CC2)C(=O)N(C)c2ccccc23)cc1`, the GI50 in assay [1] was > 100 µM (inactive); in [10], > 100 µM (inactive); in assay [13], > 100 µM (inactive); in [11], > 100 µM (inactive); in [3] it was 98.9 µM (inactive); in assay [4] it was > 100 µM (inactive). Further, the GI50 is > 100 µM (inactive) in assay [5]; > 100 µM (inactive) in assay [6]; 33.5 µM (inactive) in assay [14]; > 100 µM (inactive) in assay [7]; 69 µM (inactive) in assay [8]; > 100 µM (inactive) in assay [12]. In addition, the GI50 in assay [9] was more than 100 µM.

In the case of `CCN(CCO)C(=O)C1(c2ccccc2)CCCCC1`, the GI50 in [1], in assay [10], in [13], in [11], in assay [3] and in assay [4] was > 10 µM (inactive) in each case. Moreover, the GI50 in assay [5] was > 10 µM (inactive); in assay [6] it was > 10 µM (inactive); in assay [7] it was > 10 µM (inactive); in [8], > 10 µM (inactive); in [12], > 10 µM (inactive); in [9] it was more than 10 µM.

`S=C(S)N1CCN(c2ccccc2)CC1`: the GI50 in [10] is 34.5 µM (inactive); in [11] it was > 100 µM (inactive); in [2], > 100 µM (inactive); in assay [3] it was > 100 µM (inactive); in [4], > 100 µM (inactive); in [5], 48.5 µM (inactive). The GI50 is 45.1 µM (inactive) in assay [14], > 100 µM (inactive) in assay [12] and more than 100 µM in assay [9].

As for `Oc1cc(O)c2c(c1)O[C@H](c1ccc(O)c(O)c1)[C@@H](O)C2` [CIANIDANOL], the GI50 in [1], in assay [10], in [13], in assay [11], in assay [3] and in assay [4] was > 100 µM (inactive) each time. For the same compound, the GI50 is > 100 µM (inactive) in assay [5]; > 100 µM (inactive) in [6]; > 100 µM (inactive) in assay [14]; > 100 µM (inactive) in [7]; > 100 µM (inactive) in [8]; more than 100 µM in [9].
